pIC50: −log10 of the molar value.

One assay concerns the target recombinant human GMPS (Homo sapiens (Human), UniProt P49915). Put plainly: enzymatic assay against recombinant GMPS, UV absorbance at 290 nm. Particulars: for IC50 against GMPS, in words: recombinant GMPS; for pIC50: recombinant human GMPS.
Another assay has as its system HL-60(TB) cells. As to the kind of experiment: Sulforhodamin B viability assay. The format is cell-based. Particulars: Leukemia, negative values represent cell mortality percentage.
The subject of the next assay is NCI-H23 cells. Put plainly: Sulforhodamin B viability assay. The class given is cell-based. Particulars: NCI-H23, Non-Small Cell Lung Cancer; negative values represent cell mortality percentage.
Another assay has as its system HT29 cells. Put plainly: Sulforhodamin B viability assay. The class given is cell-based. Particulars: HT29, Colon Cancer; negative values represent cell mortality percentage.
In the next assay the test system is SF-539 cells. Put plainly: Sulforhodamin B viability assay. The class given is cell-based. Particulars: SF-539, CNS Cancer; negative values represent cell mortality percentage.
For another assay, the system named is SK-MEL-5 cells. As to the kind of experiment: Sulforhodamin B viability assay. The format is cell-based. Particulars: SK-MEL-5, Melanoma; negative values represent cell mortality percentage.
The next assay has as its system OVCAR-5 cells. As to the kind of experiment: Sulforhodamin B viability assay. The class given is cell-based. Particulars: OVCAR-5, Ovarian Cancer; negative values represent cell mortality percentage.
The test system of a further assay is UO-31 cells. As to the kind of experiment: Sulforhodamin B viability assay. The class given is cell-based. Particulars: UO-31, Renal Cancer; negative values represent cell mortality percentage.
In another assay the test system is BT-549 cells. As to the kind of experiment: Sulforhodamin B viability assay. The format is cell-based. Particulars: BT-549, Breast Cancer; negative values represent cell mortality percentage.
The test system of assay [1] is eight distinct cancer cell lines. As to the kind of experiment: Sulforhodamin B viability assay, all cell lines. Particulars: across all the eight cell lines tested. The format is cell-based.

Chain of recombinant human GMPS (P49915 whole entry): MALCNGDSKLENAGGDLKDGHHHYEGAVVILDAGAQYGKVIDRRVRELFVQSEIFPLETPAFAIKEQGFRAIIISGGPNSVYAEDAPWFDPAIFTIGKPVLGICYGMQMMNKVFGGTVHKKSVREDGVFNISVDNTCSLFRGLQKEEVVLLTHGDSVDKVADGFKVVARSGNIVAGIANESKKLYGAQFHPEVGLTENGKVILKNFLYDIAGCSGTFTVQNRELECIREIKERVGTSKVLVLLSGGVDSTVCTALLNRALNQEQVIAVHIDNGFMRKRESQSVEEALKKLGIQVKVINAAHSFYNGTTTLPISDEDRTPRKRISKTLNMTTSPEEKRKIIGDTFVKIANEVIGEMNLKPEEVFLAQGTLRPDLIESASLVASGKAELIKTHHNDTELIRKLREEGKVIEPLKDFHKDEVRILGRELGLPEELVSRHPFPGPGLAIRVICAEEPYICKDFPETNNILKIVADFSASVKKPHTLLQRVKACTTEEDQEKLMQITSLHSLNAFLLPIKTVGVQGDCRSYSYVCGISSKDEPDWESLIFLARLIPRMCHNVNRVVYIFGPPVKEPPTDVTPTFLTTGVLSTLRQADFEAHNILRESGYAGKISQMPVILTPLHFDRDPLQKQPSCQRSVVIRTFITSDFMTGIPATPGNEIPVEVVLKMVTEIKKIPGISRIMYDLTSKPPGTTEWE
Protocol for recombinant human GMPS: The potency of the five compounds was tested against recombinant GMPS in an enzymatic assay by monitoring UV absorbance at 290 nm and by determining an IC50.

As to `C#CCOc1cccc(C(=O)Nc2cccc(NC(=O)CCl)c2)c1` [Compound 5, N-(3-(2-chloroacetamido)phenyl)-3-(prop-2-yn-1-yloxy)benzamide], on recombinant human GMPS, the “IC50 against GMPS, in words” value is reported as “less active” and the pIC50 (commonly −log10 of the IC50, conventionally taken in molar units) is < 6.00.

With `COc1cccc(Nc2ncnc3ccc(NC(C)=O)cc23)c1` [Compound 3, N-(4-((3-methoxyphenyl)amino)quinazolin-6-yl) acetamide], on recombinant human GMPS, the “IC50 against GMPS, in words” value is on record as “less active” and the pIC50 is < 6.00.

As for `C#CCOc1cccc(Nc2ncnc3ccc(NC(=O)CCl)cc23)c1` [Compound 1, 2-chloro-N-(4-((3-(prop-2-yn-1-yloxy)phenyl)amino)quinazolin-6-yl) acetamide], the Cell survival is on record as −58.4% in the assay on HL-60(TB) cells; −66.8% in the assay on NCI-H23 cells; −78.6% in the assay with HT29 cells; −86.6% in the assay with SF-539 cells; −92.8% in the assay on SK-MEL-5 cells; −70.1% in the assay on OVCAR-5 cells. Besides, the Cell survival with UO-31 cells is listed as −87.8%; in the assay on BT-549 cells, −68.9%. Also, the cell death in [1] is listed as > 50%.

For the origin of these results see patent US20250263383A1, “NOVEL INHIBITORS OF GUANOSINE MONOPHOSPHATE SYNTHETASE AS THERAPEUTIC AGENTS” (University of Southern California, priority 2018, published 2025).
